Results as given in PubChem BioAssay (NCI).
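Dose response: 5 concentrations. Exposure: 48 h. Format: 96-well plates. Endpoint: linear interpolation; highest concentration if not reached. GI50 = concentration required for 50% inhibition of growth. At the TGI there is no net growth.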

Legend:
Experiment in all cases: inhibition of tumour cell growth, NCI panel, 48 h
786-0 renal = system: 786-0 renal
A498 renal = system: A498 renal
A549 NSCLC = system: A549 NSCLC
ACHN renal = system: ACHN renal
BT-549 breast = system: BT-549 breast
DU-145 prostate = system: DU-145 prostate
EKVX NSCLC = system: EKVX NSCLC
HCC-2998 colon = system: HCC-2998 colon
HCT-116 colon = system: HCT-116 colon
HCT-15 colon = system: HCT-15 colon
HL-60(TB) leukemia = system: HL-60(TB) leukemia
HOP-62 NSCLC = system: HOP-62 NSCLC
HOP-92 NSCLC = system: HOP-92 NSCLC
HS 578T breast = system: HS 578T breast
HT29 colon = system: HT29 colon
IGROV1 ovarian = system: IGROV1 ovarian
K-562 leukemia = system: K-562 leukemia
KM12 colon = system: KM12 colon
LOX IMVI melanoma = system: LOX IMVI melanoma
M14 melanoma = system: M14 melanoma
MALME-3M melanoma = system: MALME-3M melanoma
MCF7 breast = system: MCF7 breast
MDA-MB-231 breast = system: MDA-MB-231 breast
MDA-MB-435 = system: MDA-MB-435
MOLT-4 leukemia = system: MOLT-4 leukemia
NCI-H226 lung = system: NCI-H226 lung
NCI-H23 lung = system: NCI-H23 lung
NCI-H460 lung = system: NCI-H460 lung
NCI-H522 lung = system: NCI-H522 lung
NCI/ADR-RES ovarian = system: NCI/ADR-RES ovarian
OVCAR-3 ovarian = system: OVCAR-3 ovarian
OVCAR-4 ovarian = system: OVCAR-4 ovarian
OVCAR-5 ovarian = system: OVCAR-5 ovarian
OVCAR-8 ovarian = system: OVCAR-8 ovarian
PC-3 prostate = system: PC-3 prostate
RPMI-8226 leukemia = system: RPMI-8226 leukemia
RXF 393 renal = system: RXF 393 renal
SF-268 CNS = system: SF-268 CNS
SF-295 CNS = system: SF-295 CNS
SF-539 CNS = system: SF-539 CNS
SK-MEL-2 melanoma = system: SK-MEL-2 melanoma
SK-MEL-28 melanoma = system: SK-MEL-28 melanoma
SK-MEL-5 melanoma = system: SK-MEL-5 melanoma
SK-OV-3 ovarian = system: SK-OV-3 ovarian
SN12C renal = system: SN12C renal
SNB-19 CNS = system: SNB-19 CNS
SNB-75 CNS = system: SNB-75 CNS
SR leukemia = system: SR leukemia
SW-620 colon = system: SW-620 colon
T-47D breast = system: T-47D breast
TK-10 renal = system: TK-10 renal
U251 CNS = system: U251 CNS
UACC-257 melanoma = system: UACC-257 melanoma
UACC-62 melanoma = system: UACC-62 melanoma
UO-31 renal = system: UO-31 renal

For `CSc1ccc(SC2c3ccc(C)cc3Oc3nc(N)c(C#N)c(N)c32)cc1` (stereo not given), the GI50 (786-0 renal) was 1.68 µM, the TGI (786-0 renal) was 3.07 µM and the GI50 (A498 renal) was 2.05 µM. It also gave a TGI (A498 renal) of 3.95 µM, a GI50 (A549 NSCLC) of 1.82 µM and a TGI (A549 NSCLC) of 3.68 µM. The GI50 (ACHN renal) was 1.61 µM, the TGI (ACHN renal) was 2.96 µM and the GI50 (BT-549 breast) was 1.53 µM. For the same compound, the TGI (BT-549 breast) was 2.87 µM, the GI50 (DU-145 prostate) was 1.85 µM and the TGI (DU-145 prostate) was 3.26 µM. For the same compound, the GI50 (EKVX NSCLC) was 1.6 µM, the TGI (EKVX NSCLC) was 2.99 µM and the GI50 (HCC-2998 colon) was 1.78 µM. The TGI (HCC-2998 colon) was 3.28 µM, the GI50 (HCT-116 colon) was 1.92 µM and the TGI (HCT-116 colon) was 3.65 µM. The GI50 (HCT-15 colon) was 1.65 µM, the TGI (HCT-15 colon) was 3.18 µM and the GI50 (HL-60(TB) leukemia) was 2.12 µM. For the same compound, the TGI (HL-60(TB) leukemia) was 4.42 µM, the GI50 (HOP-62 NSCLC) was 1.73 µM and the TGI (HOP-62 NSCLC) was 3.22 µM. For the same compound, the GI50 (HOP-92 NSCLC) was 1.9 µM, the TGI (HOP-92 NSCLC) was 3.76 µM and the GI50 (HS 578T breast) was 2.19 µM. The TGI (HS 578T breast) was 5.53 µM, the GI50 (HT29 colon) was 2.11 µM and the TGI (HT29 colon) was 4.37 µM. It also gave a GI50 (IGROV1 ovarian) of 1.28 µM, a TGI (IGROV1 ovarian) of 3.05 µM and a GI50 (K-562 leukemia) of 2.96 µM. For the same compound, the TGI (K-562 leukemia) was 9.91 µM, the GI50 (KM12 colon) was 1.96 µM and the TGI (KM12 colon) was 3.65 µM. It also gave a GI50 (LOX IMVI melanoma) of 1.51 µM, a TGI (LOX IMVI melanoma) of 2.92 µM and a GI50 (M14 melanoma) of 1.86 µM. For the same compound, the TGI (M14 melanoma) was 3.64 µM, the GI50 (MALME-3M melanoma) was 1.54 µM and the TGI (MALME-3M melanoma) was 3.01 µM. It also gave a GI50 (MCF7 breast) of 1.84 µM, a TGI (MCF7 breast) of 4.34 µM and a GI50 (MDA-MB-231 breast) of 1.6 µM. It also gave a TGI (MDA-MB-231 breast) of 3 µM, a GI50 (MDA-MB-435) of 1.77 µM and a TGI (MDA-MB-435) of 3.27 µM. The GI50 (MOLT-4 leukemia) was 2.39 µM, the TGI (MOLT-4 leukemia) was 6.05 µM and the GI50 (NCI-H226 lung) was 1.81 µM. It also gave a TGI (NCI-H226 lung) of 3.27 µM, a GI50 (NCI-H23 lung) of 1.69 µM and a TGI (NCI-H23 lung) of 3.22 µM. It also gave a GI50 (NCI-H460 lung) of 2.03 µM, a TGI (NCI-H460 lung) of 4.07 µM and a GI50 (NCI-H522 lung) of 1.7 µM. The TGI (NCI-H522 lung) was 3.13 µM, the GI50 (NCI/ADR-RES ovarian) was 2.22 µM and the TGI (NCI/ADR-RES ovarian) was 5.46 µM. It also gave a GI50 (OVCAR-3 ovarian) of 1.74 µM, a TGI (OVCAR-3 ovarian) of 3.13 µM and a GI50 (OVCAR-4 ovarian) of 1.59 µM. The TGI (OVCAR-4 ovarian) was 3.01 µM, the GI50 (OVCAR-5 ovarian) was 1.71 µM and the TGI (OVCAR-5 ovarian) was 3.24 µM. The GI50 (OVCAR-8 ovarian) was 1.79 µM, the TGI (OVCAR-8 ovarian) was 3.18 µM and the GI50 (PC-3 prostate) was 1.64 µM. The TGI (PC-3 prostate) was 3.22 µM, the GI50 (RPMI-8226 leukemia) was 2.43 µM and the TGI (RPMI-8226 leukemia) was 6.96 µM. For the same compound, the GI50 (RXF 393 renal) was 1.71 µM, the TGI (RXF 393 renal) was 3.12 µM and the GI50 (SF-268 CNS) was 1.7 µM. For the same compound, the TGI (SF-268 CNS) was 3.33 µM, the GI50 (SF-295 CNS) was 1.58 µM and the TGI (SF-295 CNS) was 2.97 µM. For the same compound, the GI50 (SF-539 CNS) was 1.56 µM, the TGI (SF-539 CNS) was 2.98 µM and the GI50 (SK-MEL-2 melanoma) was 2.11 µM. For the same compound, the TGI (SK-MEL-2 melanoma) was 4.12 µM, the GI50 (SK-MEL-28 melanoma) was 1.83 µM and the TGI (SK-MEL-28 melanoma) was 3.29 µM. The GI50 (SK-MEL-5 melanoma) was 1.76 µM, the TGI (SK-MEL-5 melanoma) was 3.15 µM and the GI50 (SK-OV-3 ovarian) was 1.83 µM. It also gave a TGI (SK-OV-3 ovarian) of 3.29 µM, a GI50 (SN12C renal) of 1.59 µM and a TGI (SN12C renal) of 2.94 µM. The GI50 (SNB-19 CNS) was 1.77 µM, the TGI (SNB-19 CNS) was 3.16 µM and the GI50 (SNB-75 CNS) was 2.2 µM. The TGI (SNB-75 CNS) was 7.34 µM, the GI50 (SR leukemia) was 2.54 µM and the TGI (SR leukemia) was 7.65 µM. It also gave a GI50 (SW-620 colon) of 2.03 µM, a TGI (SW-620 colon) of 4.28 µM and a GI50 (T-47D breast) of 1.9 µM. For the same compound, the TGI (T-47D breast) was 4.84 µM, the GI50 (TK-10 renal) was 1.96 µM and the TGI (TK-10 renal) was 3.37 µM. It also gave a GI50 (U251 CNS) of 1.69 µM, a TGI (U251 CNS) of 3.05 µM and a GI50 (UACC-257 melanoma) of 1.81 µM. It also gave a TGI (UACC-257 melanoma) of 3.24 µM, a GI50 (UACC-62 melanoma) of 1.61 µM and a TGI (UACC-62 melanoma) of 2.97 µM. The GI50 (UO-31 renal) was 1.2 µM and the TGI (UO-31 renal) was 2.43 µM.
